Source: ChEMBL document CHEMBL6121046, “Discovery of Novel Hydrazide-Based HDAC3 Inhibitors as Epigenetic Immunomodulators for Cancer Immunotherapy” (J Med Chem, 2025)
Active and inactive are the calls of the source. No cut-off for these calls is given here.

Columns and labels:
MC-38 [1] = experiment: Induction of ROS production in mouse MC38 cells assessed as increase in intracellular ROS level measured after 48 hrs by flow cytometry; assay type: functional, cell-based
[2] = Toxicity in C57BL/6 mouse allografted with mouse MC38 cells assessed as body weight loss at 50 mg/kg, po treated 5 days after cell inoculation 19 th day; assay type: organism-based; conditions: in vivo, 360 h, time 15 day
[3] = Toxicity in C57BL/6 mouse allografted with mouse MC38 cells assessed as pathological changes in kidney at 50 mg/kg, po treated 5 days after cell inoculation 19 th day by hematoxylin and eosin analysis; assay type: organism-based; conditions: in vivo, 360 h, time 15 day
Mus musculus [4] = experiment: (§1) Immunomodulatory effect in C57BL/6 mouse allografted mouse MC38 cells assessed as increase in tumor infiltrating lymphocytes by measuring increase in CD8+ T helper cells in mouse blood at 50 mg/kg, po treated 5 days after cell inoculation 19 th day by flow cytometry analysis (reference value: 0.35%); assay type: functional; conditions: time 15 day
Mus musculus [5] = experiment: as §1, with “CD4+” for “CD8+”, “tumor in presence of NP19 PD-L1 inhibitor” for “mouse blood”, “2.57%)” for “0.35%)”; assay type: functional; conditions: time 15 day
Mus musculus [6] = experiment: as §1, with “CD4+” for “CD8+”, “blood in presence of NP19 PD-L1 inhibitor” for “blood”, “0.27%)” for “0.35%)”; assay type: functional; conditions: time 15 day
[7] = Toxicity in C57BL/6 mouse allografted with mouse MC38 cells assessed as pathological changes in liver at 50 mg/kg, po treated 5 days after cell inoculation 19 th day by hematoxylin and eosin analysis; assay type: organism-based; conditions: in vivo, 360 h, time 15 day
Mus musculus [8] = experiment: as §1, with “CD4+” for “CD8+”, “spleen in presence of NP19 PD-L1 inhibitor” for “blood”, “10.8%)” for “0.35%)”; assay type: functional; conditions: time 15 day
MC-38 [9] = experiment: Induction of mitochondrial membrane damage in mouse MC38 cells assessed as increase in JC-1 monomers by measuring green fluorescence at 4 uM measured after 48 hrs (reference value: 3.13%); assay type: functional
MC-38 [10] = experiment: Induction of mitochondrial membrane damage in mouse MC38 cells assessed as decrease in JC-1 aggregation by measuring red fluorescence at 1 uM measured after 48 hrs (reference value: 96.70%); assay type: functional; set-up: scale not given: the % may be the effect or the level left
MC-38 [11] = experiment: Induction of mitochondrial membrane damage in mouse MC38 cells assessed as increase in JC-1 monomers by measuring green fluorescence at 1 uM measured after 48 hrs (reference value: 3.13%); assay type: functional
MC-38 [12] = experiment: Induction of mitochondrial membrane damage in mouse MC38 cells assessed as decrease in JC-1 aggregation by measuring red fluorescence at 8 uM measured after 48 hrs (reference value: 96.70%); assay type: functional; set-up: scale not given: the % may be the effect or the level left
MC-38 [13] = experiment: Induction of PD-L1 expression in mouse MC38 cells in presence of JQ-1 BRD4 inhibitor at 4 uM measured after 24 hrs incubation by Western blot analysis; assay type: functional, cell-based
[14] = Cmax in Sprague-Dawley rat at 20 mg/kg, iv measured upto 12 hrs by LC-MS/MS analysis; assay type: ADME, organism-based; conditions: in vivo
Mus musculus [15] = experiment: as §1, with “spleen” for “blood”, “13.6%)” for “0.35%)”; assay type: functional; conditions: time 15 day
[16] = AUC (0 to t) in Sprague-Dawley rat at 20 mg/kg, po measured upto 12 hrs by LC-MS/MS analysis; assay type: ADME, organism-based; conditions: in vivo
MC-38 [17] = experiment: Induction of ROS production in mouse MC38 cells assessed as increase in intracellular ROS level measured after 48 hrs by DCFH-DA/Brightfield - fluorescence imaging analysis; assay type: functional, cell-based
Mus musculus [18] = experiment: Immunomodulatory effect in C57BL/6 mouse allografted with mouse MC38 cells assessed as increase in tumor infiltrating lymphocytes by measuring increase in CD3+ CD4+ cells in presence of NP19 PD-L1 inhibitor at 50 mg/kg, po treated 5 days after cell inoculation 19 th day by flow cytometry analysis; assay type: functional, organism-based; conditions: time 15.0 day
[19] = Volume of distribution at steady state in Sprague-Dawley rat at 20 mg/kg, po measured upto 12 hrs by LC-MS/MS analysis; assay type: ADME, organism-based; conditions: in vivo
[20] = Toxicity in C57BL/6 mouse allografted with mouse MC38 cells assessed as alanine amino transferase (ALT) level in serum at 50 mg/kg, po treated 5 days after cell inoculation 19 th day; assay type: organism-based; conditions: in vivo, 360 h, time 15 day
Mus musculus [21] = experiment: as §1, with “CD4+” for “CD8+”, “lymph nodes” for “blood”, “15.5%)” for “0.35%)”; assay type: functional; conditions: time 15 day
MC-38 [22] = experiment: Induction of mitochondrial membrane damage in mouse MC38 cells assessed as decrease in JC-1 aggregation by measuring red fluorescence at 4 uM measured after 48 hrs (reference value: 96.70%); assay type: functional; set-up: scale not given: the % may be the effect or the level left
[23] = MRT (0 to t) in Sprague-Dawley rat at 20 mg/kg, po measured upto 12 hrs by LC-MS/MS analysis; assay type: ADME, organism-based; conditions: in vivo
Mus musculus [24] = experiment: Immunomodulatory effect in C57BL/6 mouse allografted with mouse MC38 cells assessed as increase in tumor infiltrating lymphocytes by measuring increase in CD3+ CD4+ cells at 50 mg/kg, po treated 5 days after cell inoculation 19 th day by flow cytometry analysis; assay type: functional, organism-based; conditions: time 15.0 day
Mus musculus [25] = experiment: Induction of acetylated H3 level in tumor in C57BL/6 mouse allografted with mouse MC38 cells in presence of NP19 PD-L1 inhibitor at 50 mg/kg, po treated 5 days after cell inoculation 19 th day by immunofluorescence analysis; assay type: functional, organism-based; conditions: time 15.0 day
MC-38 [26] = experiment: In vivo antitumor activity against mouse MC38 cells allografted in C57BL/6 mouse assessed as increase in Tunel-positive cells in tumor in presence of NP19 PD-L1 inhibitor at 50 mg/kg, po treated 5 days after cell inoculation 19 th day by immunofluorescence analysis; assay type: functional, organism-based; conditions: time 15.0 day
[27] = AUC (0 to infinity) in Sprague-Dawley rat at 20 mg/kg, po measured upto 12 hrs by LC-MS/MS analysis; assay type: ADME, organism-based; conditions: in vivo
MC-38 [28] = experiment: Induction of mitochondrial membrane damage in mouse MC38 cells assessed as decrease in JC-1 aggregation by measuring red fluorescence at 2 uM measured after 48 hrs (reference value: 96.70%); assay type: functional; set-up: scale not given: the % may be the effect or the level left
[29] = Toxicity in C57BL/6 mouse allografted with mouse MC38 cells assessed as creatinine (CRE) level in serum at 50 mg/kg, po treated 5 days after cell inoculation 19 th day; assay type: organism-based; conditions: in vivo, 360 h, time 15 day
MC-38 [30] = experiment: In vivo antitumor activity against mouse MC38 cells allografted in C57BL/6 mouse assessed as decrease in […] positive cells in tumor at 50 mg/kg, po treated 5 days after cell inoculation 19 th day by immunofluorescence analysis; assay type: functional, organism-based; conditions: time 15.0 day

## CCCNNC(=O)c1ccc(CNC(=O)c2cnc(-c3ccc4occc4c3)[nH]2)cc1
MC-38 [1]
  Activity: Dose-dependent-effect
[2]
  Activity: Non-toxic
[3]
  Activity: Non-toxic
Mus musculus [4]
  Activity: 0.56%
Mus musculus [5]
  Activity: 3.11%
Mus musculus [6]
  Activity: 0.98%
[7]
  Activity: Non-toxic
Mus musculus [8]
  Activity: 11.9%
MC-38 [9]
  Activity: 27.53%
MC-38 [10]
  Activity: 93.57%
MC-38 [11]
  Activity: 6.34%
MC-38 [12]
  Activity: 71.37%
MC-38 [13]
  Activity: Active
[14]
  Cmax: 1210 ng/mL
Mus musculus [15]
  Activity: 14.1%
[16]
  AUC(0-t) at 12 h: 1420 ng·h/mL
MC-38 [17]
  Activity: Dose-dependent-effect
Mus musculus [18]
  Activity: Active
[19]
  Vdss: 72.81 L/kg
[20]
  Activity: Non-toxic
Mus musculus [21]
  Activity: 20.3%
MC-38 [22]
  Activity: 72.13%
[23]
  MRT last at 12 h: 4.2 h
Mus musculus [24]
  Activity: Active
Mus musculus [25]
  Activity: Active
MC-38 [26]
  Activity: Active
[27]
  AUC: 1429.8 ng·h/mL
MC-38 [28]
  Activity: 91.43%
[29]
  Activity: Non-toxic
MC-38 [30]
  Activity: Active
